Each compound was assayed against Tubulin (Bos taurus, UniProt Q6B856+Q862L2+Q862F3) (assay: In vitro inhibition of purified bovine brain tubulin polymerisation in the absence of microtubule-associated proteins.).

IC50	Structure (SMILES)
1.5e-06 M	COc1ccc(Cc2cc(OC)c(OC)c(OC)c2)cc1O
5.8e-06 M	COc1ccc(CCCCc2cc(OC)c(OC)c(OC)c2)cc1O
2.4e-06 M	COc1ccc(CCCc2cc(OC)c(OC)c(OC)c2)cc1O
1.4e-06 M	COc1ccc(CCc2cc(OC)c(OC)c(OC)c2)cc1O
> 0.0002 M	COc1cc2c(c(OC)c1OC)C(c1ccc3c(c1)OCO3)CC2 (stereo unspecified)
> 0.0002 M	COc1cc2c(c(OC)c1OC)C(c1ccc3c(c1)OCO3)CCC2 (stereo unspecified)
5.3e-06 M	COc1cc2c(cc1O)CCCc1cc(OC)c(OC)c(OC)c1-2
0.000104 M	COc1cc2c(cc1O)CCc1cc(OC)c(OC)c(OC)c1-2
> 0.000125 M	COc1cc2c(cc1O)CCCCc1cc(OC)c(OC)c(OC)c1-2
2.4e-06 M	COc1cc(C2CCCc3cc4c(cc32)OCO4)cc(OC)c1OC (stereo unspecified)
0.00015 M	COc1ccc(-c2ccc3c(c2)OCO3)c(OC)c1OC
0.000098 M	COc1cc(-c2ccc(OC)c(OC)c2OC)ccc1O
5e-06 M	COc1ccc(CC(OC(C)=O)c2cc(OC)c(OC)c(OC)c2)cc1O (stereo unspecified)
0.000012 M	COc1cc(C2CCc3cc4c(cc32)OCO4)cc(OC)c1OC (stereo unspecified)
0.000067 M	COc1cc(Cc2ccc3c(c2)OCO3)cc(OC)c1OC

Structure (SMILES)	IC50
COc1ccc(-c2ccc(OC)c(=O)cc2)c(OC)c1OC	7.5e-06 M

— ChEMBL document CHEMBL1125985, “Tubulin binding of conformationally restricted bis-aryl compounds” (Bioorg Med Chem Lett, 1991)
